The record followed here is patent publication US12576150B2, “CD4+ T cells expressing IL-10 and chimeric antigen receptors and uses thereof” (TR1X, INC., priority 2021, dated 2026).

SMILES strings stand for the structures.

The test relates to NLPR3 inflammasome, LPS activated monocytes. Put plainly: IL-1β production by LPS activated monocytes. Type of test: cell-based, human. The note with it: with anti-IL-10 receptor antibody. On the procedure: CD14^+ monocytes were isolated from PBMC using a pan monocyte isolation kit (Miltenyi Biotec, Bergisch Gladbach, Germany) and plated in 96 flat microtiter wells at 2×10^5/200 μL per well and cultured in the presence of LPS. The cells were cultured further in the presence of Z-YVADfmk (20 μM), MMC950 (10 μM), IL-10 (10 ng/ml) or various concentrations of single- or pooled donor […] cell supernatants as summarized in Table 1.
The supernatants were obtained from single- or pooled donor CD4^IL-10 cells activated for 72 hours with a combination of CD3 and CD28 antibodies as described previously. (Andolfi et al. 2012, Mol. Therapy Vol. 20, 1778-1790, Locafaro et al. Mol Ther 2017, 25, 2254) In some cases (FIGS. 35C and 35D), the monocytes were incubated with LPS in combination with the NLPR3 inflammasome activator nigericin (“NIG”) which was added during the last 30 minutes of the LPS activation.

`CC(C)(O)c1coc(S(=O)(=O)NC(=O)Nc2c3c(cc4c2CCC4)CCC3)c1` [MCC950]: the “effect of anti-IL-10 receptor antibody on the inhibition of IL-1β production” value was “no effect”.
Next, `COC(=O)C[C@H](NC(=O)[C@H](C)NC(=O)[C@@H](NC(=O)[C@H](Cc1ccc(O)cc1)NC(=O)OCc1ccccc1)C(C)C)C(=O)CF` [Z-YVADfmk]: “no effect”.
